Experimental data as given in patent US11358969B2, “Indole AHR inhibitors and uses thereof” (Ikena Oncology, Inc., priority 2017, dated 2022).

Legend:
B16-IDO murine melanoma = assay: Efficacy study in the mouse melanoma model B16-IDO (Example 1H); format: in vivo; conditions: B16-IDO in C57BL/6 mice, FIG. 4
Experimental: B16-IDO is a murine melanoma carcinoma cell line that has been engineered to overexpress IDO1 (Holmgaard, 2015 Cell Reports). B16-IDO cells were cultured in DMEM supplemented with 10% FBS. 2×10^5 B16-IDO cells in 50 μl PBS were implanted intradermally in 6-8 week old female, C57BL/6 mice. Dosing for the efficacy study starts 7 days post implant: AHR antagonist I-70 was dosed orally, every day (QD) at or 10 mg/kg for 2 weeks. Anti-PD-1 (BioXcell RMP1-14) was administered every 3rd day, intraperitoneally (IP) at 250 μg/mouse for five total doses. Tumors were monitored by caliper measurement every 2-3 days and body weight measured three times per week.

[1] = tested on: CD3/CD28 activated human T cells; assay: T-Cell Study with I-70 (Example 1F); format: cell-based; conditions: human T cells activated with CD3/CD28 tetramer, 24 hours
Experimental: Human T cells were isolated by CD3 negative selection after isolation of PBMCs from blood of human donors via ficoll density gradient centrifugation. One million T cells were activated with 25 uL of CD3/CD28 tetramer (Stemcell) in the presence or absence of I-70 for 24 hours, after which media was removed and stored at −80 C for later cytokine analysis. Cells were then washed 2× with PBS, before isolating RNA according to the manufacturer's instructions for the RNAeasy mini kit (Qiagen).
RNA was converted to cDNA using VILO-IV RT mastermix (Thermofisher), and q-RT-PCR was performed to determine levels of IL-22 (Hs01574154_m1), Cyp1a1 (Hs01054797_g1), and GAPDH (Hs00266705_g1). Data was analyzed using the ddCT method whereby each sample is first normalized to GAPDH housekeeping gene before being normalized to control treatment.
Cytokine levels were determined utilizing the mesoscale discovery (MSD) platform (K15067L-2) and MSD analysis software according to the manufacturer's instructions. IL-22 protein levels are decreased and pro-inflammatory IL-2 protein levels are increased by treatment with I-70, as shown in FIG. 2.

Compound: Cc1cnn2c(NCCc3c[nH]c4ccccc34)cc(-c3cncc(F)c3)nc12 [I-70, 5-(5-Fluoro-3-pyridyl)-N-[2-(1H-indol-3-yl)ethyl]-3-methyl-pyrazolo[1,5-a]pyrimidin-7-amine]
- Tumor growth (B16-IDO murine melanoma; I-70 alone, orally QD 10 mg/kg for 2 weeks): inhibited
- Tumor growth (B16-IDO murine melanoma; I-70 in combination with anti-PD-1 (IP 250 μg/mouse every 3rd day)): inhibited
- IL-22 protein levels ([1]; MSD platform, FIG. 2): decreased
- pro-inflammatory IL-2 protein levels ([1]; MSD platform, FIG. 2): increased
- IL22 RNA expression levels ([1]; q-RT-PCR, FIG. 1): inhibited
- cyp1a1 RNA expression levels ([1]; q-RT-PCR, FIG. 1): inhibited
